Measured values as given in patent US20100076091A1, “COMPOSITION AND METHOD FOR SUPPRESSING LIPOOXIDATION OF ERYTHROCYTE” (TOHOKU UNIVERSITY, priority 2007, published 2010).
One block for each compound: values may come before it.

Assays:
[1] = test system: peroxidized phospholipids in erythrocytes; test: Erythrocyte peroxidized phospholipid level (PCOOH, PEOOH) after oral ingestion, by CL-HPLC; format: in vivo, human; details: within 4 weeks after the start of ingestion, lutein 9.7 mg/day; 6 normal subjects
Description: Packed cells (washed erythrocytes, 1.5 mL) prepared in a manner similar to that in 1-1 of Example 1 were added to a 50-mL screw cap glass centrifugation tube and then 1.5 mL of a 0.1 mM EDTA-2Na aqueous solution was added, followed by gentle agitation. The solution was allowed to stand in ice for 15 minutes and then 15 mL of isopropanol was added, followed by gentle agitation. The solution was allowed to stand for 30 minutes in ice and then 15 mL of chloroform was added. After vortexing, the solution was allowed to stand for 30 minutes in ice and then centrifuged (1000 g, 10 minutes, 4° C.). […] Solvent removal was carried out under nitrogen and then the total lipid level was measured by a gravimetric method. […]
Peroxidized phospholipids (phosphatidyl choline hydroperoxide (PCOOH) and phosphatidylethanolamine hydroperoxide (PEOOH)) in erythrocytes were measured by chemiluminescence-high performance liquid chromatography (CL-HPLC). […] After separation of PCOOH and PEOOH from other lipid components by HPLC, PCOOH and PEOOH are reacted with a luminescence reagent and then hydroperoxide-group-derived chemiluminescence is detected and quantitatively determined. Specifically, the above obtained chloroform/methanol (2:1, v/v) solution (40 μL) of total erythrocyte lipids was subjected to CL-HPLC and then peroxidized phospholipids were quantitatively determined. […]

[2] = human, in vivo
Description: Blood (12 mL) of a subject after the subject had fasted for 12 hours was collected using EDTA. Blood was centrifuged (1000 g, 10 minutes, 4° C.), so that 6 mL of erythrocytes was obtained. To wash erythrocytes, 5-fold volume (30 mL) of physiological phosphate buffer (pH 8.0) was added and then centrifugation was carried out (2300 g, 10 minutes, 4° C.), thereby removing supernatants. This procedure was repeated 3 times, so that 4 mL of packed cells (washed erythrocytes) was obtained. • 1-2. Extraction of Carotenoid from Erythrocytes and Quantitative Determination Thereof
Two (2) mL of water was added to 2 mL of packed cells (washed erythrocytes) for hemolysis of erythrocytes. […] Fifty (50) μL of the solution was subjected to the following UV-HPLC analysis, so that erythrocyte carotenoid was quantitatively determined. […]
To examine whether the ingested xanthophyll would be actually transferred to erythrocytes so as to suppress accumulation of peroxidized phospholipids, lutein that exists at the highest concentration among human erythrocyte xanthophyll members was administered to 6 normal subjects (3 male subjects and 3 female subjects) for 4 weeks. […] Erythrocytes were separated from the thus obtained blood and then the concentration of erythrocyte lutein and the peroxidized phospholipid level were measured. […]

[3] = test system: erythrocytes; test: Search for ingredients capable of preventing lipoperoxidation of erythrocytes

SMILES: CC1=C[C@H](O)CC(C)(C)[C@H]1/C=C/C(C)=C/C=C/C(C)=C/C=C/C=C(C)/C=C/C=C(C)/C=C/C1=C(C)C[C@@H](O)CC1(C)C [lutein]
peroxidized phospholipid level in erythrocytes compared with the level before the start of ingestion [1]: significantly decreased

concentration of erythrocyte zeaxanthin, average [2]: 52 pmol/g hemoglobin
SMILES: CC1=C(/C=C/C(C)=C/C=C/C(C)=C/C=C/C=C(C)/C=C/C=C(C)/C=C/C2=C(C)C[C@@H](O)CC2(C)C)C(C)(C)C[C@H](O)C1 [zeaxanthin]

SMILES: Cc1c(C)c2c(c(C)c1O)CC[C@@](C)(CCC[C@H](C)CCC[C@H](C)CCCC(C)C)O2 [α-tocopherol]
prevention of lipoperoxidation of erythrocytes [3]: has no such effects
